Test results published in US20030027799A1, “Methods of treating cancer using a combination of drugs” (priority 2001, published 2003).

Key:
[1] = Dose escalation study of β-L-OddC and cisplatin in cancer patients: dose limiting toxicity, maximum tolerated dose; format: in vivo; settings: β-L-OddC in combination with cisplatin 50 mg/m^2, administered every four weeks
Source text: The patients selected were adult patients with solid tumours that were refractory to standard therapies. […] They had adequate bone marrow, renal and hepatic function. There were 33 patients treated. Sixteen were male patients and seventeen were female. Twenty patients had colorectal cancer. Two patients had melanoma. One patient each had gastric cancer, islet cell cancer of the pancreas, non-small lung cancer (NSCLC), renal cancer, cervical cancer, breast cancer, ovarian cancer, squamous cell cancer of the pelvis, liver cancer, abdominal cancer and penile cancer. […] The terms LP and HP refer to lightly pre-treated and heavily pre-treated patient status. The term DLT refers to Dose limiting Toxicity.

[2] = test system: various forms of cancers (e.g. solid tumours, adult leukemia and lymphomas); settings: Weitman 2000, Giles 2001, Gourdeau 2001; cited from earlier work

Compound: Nc1ccn([C@@H]2CO[C@H](CO)O2)c(=O)n1 [β-L-OddC, (−)-β-L-Dioxolane-Cytidine]
- recommended dose for heavily pre-treated patients [1]: 4.8 mg/m^2
- activity in the treatment of various forms of cancers [2]: potent activity
